Measurements: US8383619B2, “Pharmaceutical compounds” (Astex Therapeutics Limited, priority 2008, dated 2013)

How the values were obtained:
Assay in all cases: Anti-proliferative assay (Oncodesign)
Format in all cases: cell-based
[1] = system: Hs 746T; settings: Homo sapiens, Hs746T; Hs 746T (STOMACH); read-out: IC50 (Concentration of test compound)
Protocol: (§1) The anti-proliferative activities of the parent compounds of the pro-drugs of the invention may be determined by measuring the ability of the compounds to inhibition of cell growth in a number of cell lines such as the human colon cancer cell line HCT116. Inhibition of cell growth is measured using the Alamar Blue assay (Nociari, M. M, Shalev, A., Benias, P., Russo, C. Journal of Immunological Methods 1998, 213, 157-167). The method is based on the ability of viable cells to reduce resazurin to its fluorescent product resorufin. For each proliferation assay cells are plated onto 96 well plates and allowed to recover for 16 hours prior to the addition of inhibitor compounds for a further 72 hours. At the end of the incubation period 10% (v/v) Alamar Blue is added and incubated for a further 6 hours prior to determination of fluorescent product at […]. In the case of the non-proliferating cell assay cells are maintained at confluence for 96 hour prior to the addition of inhibitor compounds for a further 72 hours. The number of viable cells is determined by Alamar Blue assay as before. Cell lines may be obtained from the ECACC (European Collection of cell Cultures).
(§2) The parent compound of the pro-drugs of Examples 1 to 25 i.e. (2,4-dihydroxy-5-isopropyl-phenyl)-[5-(4-methyl-piperazin-1-ylmethyl)-1,3-dihydro-isoindol-2-yl]-methanone, in the form of its L-lactate salt, was tested in anti-proliferative assays against one hundred cell lines by Oncodesign (Dijon, France). The IC50 values against each cell line are set out in the table below and the figures in the table refer to nanomolar concentrations. The compounds were tested up to a concentration of 10,000 nanomolar.

[2] = system: Evsa-T; settings: Homo sapiens; Evsa-T (BREAST); read-out: IC50 (Concentration of test compound)
Protocol: as §1, §2

[3] = system: KB3; settings: KB3 (HEAD AND NECK); read-out: IC50 (Concentration of test compound)
Protocol: as §1, §2

[4] = system: NCI-H520; settings: Homo sapiens; NCI-H520 (LUNG); read-out: IC50 (Concentration of test compound)
Protocol: as §1, §2

[5] = system: U-937; settings: Homo sapiens; U-937 (BLOOD); read-out: IC50 (Concentration of test compound)
Protocol: as §1, §2

[6] = system: RPMI 8226/Dox40; settings: Homo sapiens; RPMI 8226/Dox40 (BLOOD); read-out: IC50 (Concentration of test compound)
Protocol: as §1, §2

[7] = system: LB13-SCLC/OC3; settings: LB13-SCLC/OC3 (LUNG); read-out: IC50 (Concentration of test compound)
Protocol: as §1, §2

[8] = system: KATO III; settings: Homo sapiens; KATO III (STOMACH); read-out: IC50 (Concentration of test compound)
Protocol: as §1, §2

[9] = system: BB30-HNSCC; settings: BB30-HNSCC (HEAD AND NECK); read-out: IC50 (Concentration of test compound)
Protocol: as §1, §2

[10] = system: SK-MEL-5; settings: Homo sapiens; SK-MEL-5 (SKIN); read-out: IC50 (Concentration of test compound)
Protocol: as §1, §2

[11] = system: Caki-1; settings: Homo sapiens; Caki-1 (KIDNEY); read-out: IC50 (Concentration of test compound)
Protocol: as §1, §2

[12] = system: Daudi; settings: Homo sapiens; Daudi (BLOOD); read-out: IC50 (Concentration of test compound)
Protocol: as §1, §2

[13] = system: LB1617-HNSCC; settings: LB1617-HNSCC (HEAD AND NECK); read-out: IC50 (Concentration of test compound)
Protocol: as §1, §2

[14] = system: MCF-7; settings: Homo sapiens, MCF7; MCF-7 (BREAST); read-out: IC50 (Concentration of test compound)
Protocol: as §1, §2

[15] = system: UZG4-MEL; settings: UZG4-MEL (SKIN); read-out: IC50 (Concentration of test compound)
Protocol: as §1, §2

[16] = system: DU 145; settings: Homo sapiens; DU 145 (PROSTATE); read-out: IC50 (Concentration of test compound)
Protocol: as §1, §2

[17] = system: CCRF-CEM/VLB; settings: Homo sapiens; CCRF-CEM/VLB (BLOOD); read-out: IC50 (Concentration of test compound)
Protocol: as §1, §2

[18] = system: HCT-15; settings: Homo sapiens; HCT-15 (COLON); read-out: IC50 (Concentration of test compound)
Protocol: as §1, §2

[19] = system: NIH: OVCAR-3; settings: Homo sapiens; NIH: OVCAR-3 (OVARY); read-out: IC50 (Concentration of test compound)
Protocol: as §1, §2

[20] = system: LNCaP-FGC; settings: LNCaP-FGC (PROSTATE); read-out: IC50 (Concentration of test compound)
Protocol: as §1, §2

[21] = system: SW-872; settings: Homo sapiens, SW872; SW-872 (CONNECTIVE TISSUE); read-out: IC50 (Concentration of test compound)
Protocol: as §1, §2

[22] = system: CGL-3; settings: CGL-3 (BRAIN); read-out: IC50 (Concentration of test compound)
Protocol: as §1, §2

[23] = system: LAMA-84; settings: Homo sapiens; LAMA-84 (BLOOD); read-out: IC50 (Concentration of test compound)
Protocol: as §1, §2

[24] = system: SUP-B15; settings: Homo sapiens; SUP-B15 (BLOOD); read-out: IC50 (Concentration of test compound)
Protocol: as §1, §2

[25] = system: BxPC-3; settings: Homo sapiens; BxPC-3 (PANCREAS); read-out: IC50 (Concentration of test compound)
Protocol: as §1, §2

CC(C)c1cc(C(=O)N2Cc3ccc(CN4CCN(C)CC4)cc3C2)c(O)cc1O [(2,4-dihydroxy-5-isopropyl-phenyl)-[5-(4-methyl-piperazin-1-ylmethyl)-1,3-dihydro-isoindol-2-yl]-methanone] gave an IC50 [1] of 34 nM, an IC50 [2] of 168 nM and an IC50 [3] of 48 nM. For the same compound, the IC50 [4] was 98 nM, the IC50 [5] was 104 nM and the IC50 [6] was 213 nM. For the same compound, the IC50 [7] was 21 nM, the IC50 [8] was 162 nM and the IC50 [9] was 273 nM. It also gave an IC50 [10] of 185 nM, an IC50 [11] of over 10 µM and an IC50 [12] of 136 nM. The IC50 [13] was 139 nM, the IC50 [14] was over 10 µM and the IC50 [15] was 180 nM. For the same compound, the IC50 [16] was 85 nM, the IC50 [17] was over 10 µM and the IC50 [18] was over 10 µM. The IC50 [19] was 45 nM, the IC50 [20] was 78 nM and the IC50 [21] was over 10 µM. It also gave an IC50 [22] of 75 nM, an IC50 [23] of 1100 nM and an IC50 [24] of 37 nM. It also gave an IC50 [25] of 196 nM.
